Experimental data reported in US20240002344A1, “COMPOUNDS, COMPOSITIONS AND METHODS FOR HISTONE LYSINE DEMETHYLASE INHIBITION” (FibroGen, Inc., priority 2020, published 2024).

Legend:
recombinant human KDM4A = biological target: T1, recombinant human KDM4A (Homo sapiens, UniProt O75164); assay: 14CO2 capture enzymatic assay (decarboxylation of [1-14C] αKG), KDM4A; type: biochemical; conditions: 10 μM [1-14C] αKG, 90 μM non-labeled αKG, 50 μM peptide substrate, 37° C., 1 hour, final 1% DMSO
T1 construct: made in house
T1 sequence (O75164 1-359 limits assumed): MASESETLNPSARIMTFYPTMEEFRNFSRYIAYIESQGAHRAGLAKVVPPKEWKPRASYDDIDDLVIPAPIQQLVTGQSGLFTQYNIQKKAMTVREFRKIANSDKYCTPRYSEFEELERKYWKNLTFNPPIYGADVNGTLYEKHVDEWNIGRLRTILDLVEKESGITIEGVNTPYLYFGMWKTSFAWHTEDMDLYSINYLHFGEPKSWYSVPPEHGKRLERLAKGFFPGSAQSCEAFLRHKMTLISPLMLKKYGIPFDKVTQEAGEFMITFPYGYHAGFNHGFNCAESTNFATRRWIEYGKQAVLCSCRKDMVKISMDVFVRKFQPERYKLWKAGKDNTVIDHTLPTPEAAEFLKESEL
Description: (§1) Enzymatic activity was determined based on the capture of ^14CO2 released by the decarboxylation of [1-^14C] αKG (Zhang et al., Anal. Biochem., 1998, vol. 271, pp. 137-142). [1-^14C]alphaketoglutarate (αKG) was from Perkin-Elmer, H3K4me3 and H3K9me3 peptides were from Mimotopes. All other reagents were from Sigma. Reaction mixtures included the following components: Fe(SO4), [1-^14C] αKG, non-labeled αKG, ascorbate, peptide-substrate (H3K4me3: H-ARTK(me3)QTARKSTGGKAPRKQLA-OH. H3K9me3: H-ARTKQTARK(me3)STGGKAPRKQLA-OH), NaCl, Tween-20 and catalase in 25 mM HEPES buffer, pH 7.4. The enzymatic reactions were initiated by addition of recombinant human KDM5B or KDM4A enzyme (truncated enzyme produced in house by method and using sequence disclosed in Ng et al, Nature 448:87-91, 2007). The reactions were performed in 96-well microtiter plates (20 μL total assay volume) (Greiner #650201). ^14CO2 was captured on a glass fiber filter paper (Cat. No. IH-201-A, Inotech Biosystems International) soaked with saturated Ba(OH)2 that was laid on top of the 96-well plate. A microtiter plate sealer film (Thermal Seal cat #T7961100) was applied to the filter paper. The plate and filter paper were sandwiched between two custom made aluminum plates (Advanced Component Manufacturing, Burlingame, CA) and transferred to a 37° C. oven and allowed to incubate for 1 hour. After incubation, the filter paper was dried in a 103° C. oven for 40-60 minutes. To determine percent turnover, aliquots of the reaction mixture were spotted onto the filter paper and the filter paper was dried again. The dry filter paper was exposed to a storage phosphor screen for 24-72 hours and the images recorded using a Typhoon FLA 7000 Imager (Amersham Biosciences, Piscataway, NJ). Integrated spot intensities corresponding to control reactions lacking the enzyme were subtracted from integration results for enzyme containing reactions and data were converted to enzyme dependent percent ^14CO2 release. All enzymatic reactions were run in duplicates.
(§2) For IC50 determination, a 3-fold dilution series of compound was prepared and added to the reaction mixture (final 1% DMSO, v/v) prior to enzyme addition. The final reagent concentrations were: 10 μM Fe(SO4), 10 μM [1-^14C] αKG, 90 μM non-labeled αKG, 2 mM ascorbate, 50 μM peptide substrate, 75 mM NaCl, 0.01% Tween-20 and ˜2 units/μL catalase. IC50s were determined by non-linear fitting using Grafit version 7.0.

recombinant human KDM5B = biological target: T2, recombinant human KDM5B (Homo sapiens, UniProt Q9UGL1); assay: 14CO2 capture enzymatic assay (decarboxylation of [1-14C] αKG), KDM5B; type: biochemical; conditions: 10 μM [1-14C] αKG, 90 μM non-labeled αKG, 50 μM peptide substrate, 37° C., 1 hour, final 1% DMSO
T2 sequence (Q9UGL1 374-755 limits assumed): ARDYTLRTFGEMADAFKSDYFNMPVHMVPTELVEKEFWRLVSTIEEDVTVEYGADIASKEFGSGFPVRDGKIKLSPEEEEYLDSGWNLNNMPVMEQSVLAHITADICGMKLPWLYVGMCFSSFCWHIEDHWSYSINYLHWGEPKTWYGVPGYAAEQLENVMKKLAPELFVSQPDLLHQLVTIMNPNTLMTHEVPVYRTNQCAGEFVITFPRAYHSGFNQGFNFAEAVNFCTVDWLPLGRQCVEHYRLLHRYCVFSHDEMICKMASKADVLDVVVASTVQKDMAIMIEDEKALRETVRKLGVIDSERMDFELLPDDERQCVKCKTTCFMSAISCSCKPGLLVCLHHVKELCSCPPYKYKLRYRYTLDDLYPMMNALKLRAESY
Description: as §1, §2

| IC50 (recombinant human KDM4A) | IC50 (recombinant human KDM5B) | SMILES |
| --- | --- | --- |
| > 40000 nM | 230 nM | N#Cc1cc(Cc2cc(Cl)cc(Cl)c2)nc(C(=O)CCC(=O)O)c1O [Example 31, 4-[4-Cyano-6-(3,5-dichloro-benzyl)-3-hydroxy-pyridin-2-yl]-4-oxo-butyric acid] |
| 12000 nM | 240 nM | N#Cc1cc(Cc2c(Cl)cccc2Cl)nc(C(=O)CCC(=O)O)c1O [Example 32, 4-[4-Cyano-6-(2,6-dichloro-benzyl)-3-hydroxy-pyridin-2-yl]-4-oxo-butyric acid] |
| > 40000 nM | 420 nM | N#Cc1cc(CC2CCCCC2)nc(C(=O)CCC(=O)O)c1O [Example 33, 4-(4-Cyano-6-cyclohexylmethyl-3-hydroxy-pyridin-2-yl)-4-oxo-butyric acid] |
| 12000 nM | 60 nM | N#Cc1cc(Cc2cccc3ccccc23)nc(C(=O)CCC(=O)O)c1O [Example 34, 4-(4-Cyano-3-hydroxy-6-naphthalen-1-ylmethyl-pyridin-2-yl)-4-oxo-butyric acid] |
| 12000 nM | 50 nM | N#Cc1cc(C(F)(F)F)nc(C(=O)CCC(=O)O)c1O [Example 35, 4-(4-Cyano-3-hydroxy-6-trifluoromethyl-pyridin-2-yl)-4-oxo-butyric acid] |
| 3700 nM | 70 nM | Cc1ccccc1Cc1cc(C#N)c(O)c(C(=O)CCC(=O)O)n1 [Example 36, 4-[4-Cyano-3-hydroxy-6-(2-methyl-benzyl)-pyridin-2-yl]-4-oxo-butyric acid] |
| > 40000 nM | 60 nM | Cc1cccc(Cc2cc(C#N)c(O)c(C(=O)CCC(=O)O)n2)c1 [Example 37, 4-[4-Cyano-3-hydroxy-6-(3-methyl-benzyl)-pyridin-2-yl]-4-oxo-butyric acid] |
| > 40000 nM | 120 nM | Cc1ccc(Cc2cc(C#N)c(O)c(C(=O)CCC(=O)O)n2)cc1 [Example 38, 4-[4-Cyano-3-hydroxy-6-(4-methyl-benzyl)-pyridin-2-yl]-4-oxo-butyric acid] |
| > 40000 nM | 130 nM | N#Cc1cc(Cc2ccc(C(F)(F)F)cc2)nc(C(=O)CCC(=O)O)c1O [Example 39, 4-[4-Cyano-3-hydroxy-6-(4-trifluoromethyl-benzyl)-pyridin-2-yl]-4-oxo-butyric acid] |
| 17000 nM | 60 nM | N#Cc1cc(Cc2ccc(F)cc2)nc(C(=O)CCC(=O)O)c1O [Example 40, 4-[4-Cyano-6-(4-fluoro-benzyl)-3-hydroxy-pyridin-2-yl]-4-oxo-butyric acid] |
| 22000 nM | 150 nM | N#Cc1cc(Cc2ccccc2C(F)(F)F)nc(C(=O)CCC(=O)O)c1O [Example 41, 4-[4-Cyano-3-hydroxy-6-(2-trifluoromethyl-benzyl)-pyridin-2-yl]-4-oxo-butyric acid] |
| 32000 nM | 210 nM | N#Cc1cc(Cc2cccc(F)c2)nc(C(=O)CCC(=O)O)c1O [Example 42, 4-[4-Cyano-6-(3-fluoro-benzyl)-3-hydroxy-pyridin-2-yl]-4-oxo-butyric acid] |
| 37000 nM | 150 nM | N#Cc1cc(Cc2ccccc2F)nc(C(=O)CCC(=O)O)c1O [Example 43, 4-[4-Cyano-6-(2-fluoro-benzyl)-3-hydroxy-pyridin-2-yl]-4-oxo-butyric acid] |
| > 40000 nM | 230 nM | N#Cc1ccc(Cc2cc(C#N)c(O)c(C(=O)CCC(=O)O)n2)cc1 [Example 44, 4-[4-Cyano-6-(4-cyano-benzyl)-3-hydroxy-pyridin-2-yl]-4-oxo-butyric acid] |
| > 40000 nM | 540 nM | N#Cc1cccc(Cc2cc(C#N)c(O)c(C(=O)CCC(=O)O)n2)c1 [Example 45, 4-[4-Cyano-6-(3-cyano-benzyl)-3-hydroxy-pyridin-2-yl]-4-oxo-butyric acid] |
| 13000 nM | 430 nM | N#Cc1ccccc1Cc1cc(C#N)c(O)c(C(=O)CCC(=O)O)n1 [Example 46, 4-[4-Cyano-6-(2-cyano-benzyl)-3-hydroxy-pyridin-2-yl]-4-oxo-butyric acid] |
| > 40000 nM | 300 nM | N#Cc1cc(Cc2ccc(OC(F)(F)F)cc2)nc(C(=O)CCC(=O)O)c1O [Example 47, 4-[4-Cyano-3-hydroxy-6-(4-trifluoromethoxy-benzyl)-pyridin-2-yl]-4-oxo-butyric acid] |
| > 40000 nM | 310 nM | N#Cc1cc(Cc2cccc(OC(F)(F)F)c2)nc(C(=O)CCC(=O)O)c1O [Example 48, 4-[4-Cyano-3-hydroxy-6-(3-trifluoromethoxy-benzyl)-pyridin-2-yl]-4-oxo-butyric acid] |
| > 40000 nM | 270 nM | N#Cc1cc(Cc2ccccc2OC(F)(F)F)nc(C(=O)CCC(=O)O)c1O [Example 49, 4-[4-Cyano-3-hydroxy-6-(2-trifluoromethoxy-benzyl)-pyridin-2-yl]-4-oxo-butyric acid] |
| > 40000 nM | 390 nM | N#Cc1cc(Cc2ccc(-c3ccccc3)cc2)nc(C(=O)CCC(=O)O)c1O [Example 50, 4-(6-Biphenyl-4-ylmethyl-4-cyano-3-hydroxy-pyridin-2-yl)-4-oxo-butyric acid] |
| > 40000 nM | 200 nM | N#Cc1cc(Cc2cccc(-c3ccccc3)c2)nc(C(=O)CCC(=O)O)c1O [Example 51, 4-(6-Biphenyl-3-ylmethyl-4-cyano-3-hydroxy-pyridin-2-yl)-4-oxo-butyric acid] |
| > 40000 nM | 300 nM | N#Cc1cc(Cc2ccccc2-c2ccccc2)nc(C(=O)CCC(=O)O)c1O [Example 52, 4-(6-Biphenyl-2-ylmethyl-4-cyano-3-hydroxy-pyridin-2-yl)-4-oxo-butyric acid] |
| > 40000 nM | 250 nM | N#Cc1cc(Cc2c(F)cccc2F)nc(C(=O)CCC(=O)O)c1O [Example 53, 4-[4-Cyano-6-(2,6-difluoro-benzyl)-3-hydroxy-pyridin-2-yl]-4-oxo-butyric acid] |
| 4900 nM | 230 nM | Cc1cccc(C)c1Cc1cc(C#N)c(O)c(C(=O)CCC(=O)O)n1 [Example 54, 4-[4-Cyano-6-(2,6-dimethyl-benzyl)-3-hydroxy-pyridin-2-yl]-4-oxo-butyric acid] |
| 34000 nM | 220 nM | N#Cc1cc(Cc2c(F)cc(F)cc2F)nc(C(=O)CCC(=O)O)c1O [Example 55, 4-[4-Cyano-3-hydroxy-6-(2,4,6-trifluoro-benzyl)-pyridin-2-yl]-4-oxo-butyric acid] |
| > 40000 nM | 290 nM | N#Cc1cc(Cc2c(F)ccc(Cl)c2F)nc(C(=O)CCC(=O)O)c1O [Example 56, 4-[6-(3-Chloro-2,6-difluoro-benzyl)-4-cyano-3-hydroxy-pyridin-2-yl]-4-oxo-butyric acid] |
| 28000 nM | 270 nM | N#Cc1cc(Cc2c(F)ccc(F)c2F)nc(C(=O)CCC(=O)O)c1O [Example 57, 4-[4-Cyano-3-hydroxy-6-(2,3,6-trifluoro-benzyl)-pyridin-2-yl]-4-oxo-butyric acid] |
| 16000 nM | 180 nM | N#Cc1cc(Cc2c(Cl)cccc2C#N)nc(C(=O)CCC(=O)O)c1O [Example 58, 4-[6-(2-Chloro-6-cyano-benzyl)-4-cyano-3-hydroxy-pyridin-2-yl]-4-oxo-butyric acid] |
